The values below are quoted from earlier work in US20100028296A1, “Use of cytokine-derived peptides in treatment of pain and neurodegenerative disease” (priority 2005, published 2010).

Where no end group is shown, it is not given here.

The test system of series [1] is excitotoxic spinal cord injury. Conditions: given 30 minutes following injury.
The conditions of series [2]: native dimer, approximately 37 kDa.
The test system of series [3] is dynorphin-induced, IL-1β-mediated mechanical allodynia. Conditions: intrathecal; administered 30 minutes or 6 hours after induction of allodynia.
Series [4] relates to chronic constriction injury model of neuropathic pain. To be noted: in vivo.
The subject of series [5] is immunomodulatory functions known for human IL-10. Conditions: at generally different dosage levels.

For the compound “IL-10: anti-inflammatory cytokine, dimer of approximately 37 kDa in its native state”, the pathological pain behaviors entry in series [1] is “decreased pathological pain behaviors”. The “crossing of the intact blood brain barrier” value in series [2] is recorded as “does not cross the intact blood brain barrier in appreciable amounts”. Besides, in series [3], the “onset of mechanical allodynia” value is on record as “blocks the onset”.

For `O=C1CCC(N2C(=O)c3ccccc3C2=O)C(=O)N1` (stereo not drawn) [thalidomide], in series [4], the mechanical allodynia entry is “reduces” and the thermal hyperalgesia entry is “reduces”.

In the case of “AYMTMKIRN [IT, C-terminal nonapeptide from human IL-10 protein]”, in series [5], the “functional activities compared with intact IL-10” value is recorded as “shares some, but not all, of the functional activities of intact IL-10”.
